Consider 23 compounds from article PMC6264553, “Synthesis and In Vitro Protein Tyrosine Kinase Inhibitory Activity of Furan-2-yl(phenyl)methanone Derivatives” (Molecules, 2011).

Data set [1] addresses Protein Tyrosine Kinase (PTK). Put plainly: PTK inhibitory activity, ELISA tyrosine kinase assay with poly-Glu-Tyr substrate. Type of data set: biochemical, rat. Conditions: for IC50: tyrosine kinase extracted from rat brain tissue, means of three experiments, NA = not active at 5 μg/mL, read-out: Protein Tyrosine Kinase (PTK) inhibition activity, IC50; for PTK inhibitory activity (in words): in vitro, SAR discussion. The method, then:
The activities of PTKs were tested using ELISA. The tyrosine kinase was extracted from brain tissue of rat, and microtiter plates were coated using poly-Glu-Tyr (PGT) as substrates. If the tyrosine residues of PGT were phosphorylated by PTKs, they bound to phospho-specific monoclonal antibody that was labeled specifically with HRP. The absorbance was measured to reflect the activity of PTK.
The phosphorylation assays were performed at 37 °C in a final volume of 40 µL tyrosine kinase. The concentrations of PTKs used to construct calibration curves were as follows: 600, 500, 400, 300, 200 and 100 × 10^−7 U/mL for PTK. A concentration of 500 × 10^−7/μL was used for each inhibitor. Phosphorylation reactions were initiated with the addition of 40 mM ATP (10 μL) into each vessel, and the plate was incubated at 37 °C for 30 min. After completion of reaction, liquid was decanted and the vessels were washed four times with Tween-PBS. One hundred microliters of blocking solution was added to the vessels and incubated at 37 °C for 30 min. After washing the plate with Tween-PBS, anti-phosphotyrosine (50 μL) was added to the vessels and incubated at 37 °C for 30 min. The reaction liquid was decanted and the remaining solution was removed by rinsing four times with Tween-PBS. One hundred μL of HRP coloring agent was added and incubated at 37 °C for 15 min. The reaction was terminated by addition of 1 N sulfuric acid (100 μL /well). The absorbance of the reaction was measured at 450 nm on a microplate reader.

For orientation: melting point means the temperature, or range, at which the solid turns liquid. As usually defined, the IC50 is the concentration that gives 50% inhibition.

`COc1ccc(C(=O)c2ccco2)cc1OC` [Compound 3a, (3,4-Dimethoxyphenyl)(furan-2-yl)methanone] returned a melting point of 98 to 100 °C.

`COc1ccc(C(=O)c2ccco2)c(OC)c1O` [Compound 3b, Furan-2-yl(3-hydroxy-2,4-dimethoxyphenyl)methanone] had a melting point of 168 to 170 °C.

`COc1ccc(Br)cc1C(=O)c1ccco1` [Compound 3c, (5-Bromo-2-methoxyphenyl)(furan-2-yl)methanone] came in with a melting point of 66 to 70 °C.

In turn, `COc1ccc(C(=O)c2ccco2)cc1` [Compound 3d, Furan-2-yl(4-methoxyphenyl)methanone] had a melting point of 58 to 60 °C.

The compound `O=C(c1ccc(O)c(O)c1)c1ccco1` [Compound 4a, (3,4-Dihydroxyphenyl)(furan-2-yl)methanone] yielded a melting point of 132 to 134 °C. Also, the IC50 in data set [1] stood at 4.66 µM.

Turning to `O=C(c1ccco1)c1ccc(O)c(O)c1O` [Compound 4b, Furan-2-yl(2,3,4-trihydroxyphenyl)methanone], the IC50 in data set [1] stood at 6.42 µM.

For `O=C(c1ccco1)c1cc(Br)ccc1O` [Compound 4c, (5-Bromo-2-hydroxyphenyl)(furan-2-yl)methanone], the melting point was in the range of 88 to 90 °C.

The compound `COc1ccc(Br)cc1C(=O)c1ccc(Br)o1` [Compound 7b, (5-Bromo-2-methoxyphenyl)(5-bromofuran-2-yl)methanone] registered a melting point of 98 to 100 °C.

`O=C(c1ccc(Br)o1)c1ccc(O)c(O)c1O` [Compound 8a, (5-Bromofuran-2-yl)(2,3,4-trihydroxyphenyl)methanone]: the melting point is 132 to 134 °C. Also, the half-inhibitory concentration (IC50) in data set [1] was found to be 5.31 µM.

The compound `O=C(c1ccc(Br)o1)c1cc(Br)ccc1O` [Compound 8b, (5-Bromo-2-hydroxyphenyl)(5-bromofuran-2-yl)methanone] gave a melting point of 82 to 84 °C.

As for `O=C(c1ccc(O)c(O)c1)c1ccc(Br)o1` [Compound 8c, (5-Bromofuran-2-yl)(3,4-dihydroxyphenyl)methanone], in data set [1], the “PTK inhibitory activity (in words)” value is recorded as “strongest activity” and the IC50 came out at 2.72 µM.

Regarding `COc1ccc(C(=O)c2cc(Br)c(Br)o2)cc1O` [Compound 13, (4,5-Dibromofuran-2-yl)(3-hydroxy-4-methoxyphenyl)methanone], the melting point was in the range of 107 to 109 °C.

Take `O=C(c1ccc(O)c(O)c1)c1cc(Br)c(Br)o1` [Compound 14, (4,5-Dibromofuran-2-yl)(3,4-dihydroxyphenyl)methanone]: the melting point was in the range of 184 to 186 °C. For the same compound, in data set [1], the “PTK inhibitory activity (in words)” value is reported as “no activity”.

`COc1cccc(OC)c1C(=O)c1ccco1` [Compound 17b, (2,6-Dimethoxyphenyl)(furan-2-yl)methanone] came in with a melting point of 64 to 66 °C.

Consider `O=C(c1ccco1)c1cccc(O)c1O` [Compound 18a, (2,3-Dihydroxyphenyl)(furan-2-yl)methanone], for which the melting point lay within 64 to 66 °C. Also, in data set [1], the IC50 came to 13.2 µM.

On to `O=C(c1ccco1)c1c(O)cccc1O` [Compound 18b, (2,6-Dihydroxyphenyl)(furan-2-yl)methanone], for which the melting point is 66 to 68 °C. The IC50 in data set [1] amounted to 12.7 µM.

In the case of `COc1c(Br)c(C(=O)c2ccco2)c(Br)c(OC)c1OC` [Compound 21b, (2,6-Dibromo-3,4,5-trimethoxyphenyl)(furan-2-yl)methanone], the melting point lay in the range of 96 to 98 °C.

`COc1cc(C(=O)c2ccco2)c(Cl)c(OC)c1OC` [Compound 21c, (2-Chloro-3,4,5-trimethoxyphenyl)(furan-2-yl)methanone]: the melting point lay in the range of 80 to 82 °C.

For the compound `COc1c(O)c(C(=O)c2ccco2)cc(Br)c1Br` [Compound 21d, (4,5-Dibromo-2-hydroxy-3-methoxyphenyl)(furan-2-yl)methanone], the melting point lay within 102 to 104 °C.

In the case of `O=C(c1ccc(O)c(Br)c1)c1ccco1` [Compound 22a, (3-Bromo-4-hydroxyphenyl)(furan-2-yl)methanone], the melting point was in the range of 100 to 102 °C.

The compound `O=C(c1ccco1)c1c(Br)c(O)c(O)c(O)c1Br` [Compound 22b, (2,6-Dibromo-3,4,5-trihydroxyphenyl)(furan-2-yl)methanone] had a melting point of 148 to 150 °C. Also, in data set [1], the “PTK inhibitory activity (in words)” value is “no activity”.

In the case of `O=C(c1ccco1)c1cc(O)c(O)c(O)c1Cl` [Compound 22c, (2-Chloro-3,4,5-trihydroxyphenyl)(furan-2-yl)methanone], the melting point was 150 to 152 °C. Besides, the concentration for half-maximal inhibition (IC50) in data set [1] turned out to be 4.62 µM.

`O=C(c1ccco1)c1cc(Br)c(Br)c(O)c1O` [Compound 22d, (4,5-Dibromo-2,3-dihydroxyphenyl)(furan-2-yl)methanone] came in with a melting point of 138 to 140 °C. The IC50 in data set [1] was found to be 9.56 µM.
